Reference: patent publication US5106854A, “Quinolinecarboxylic acids” (Shionogi & Co., Ltd., priority 1988, dated 1992)
Values after ≈ are worked out from the molar mass of the structure shown. Structures can show the parent of a compound that is named as a salt.

Tests used:
Type in all cases: cell-based
[1] = tested on: Staphylococcus aureus SMITH; assay: Antibacterial spectrum, minimum growth inhibitory concentration (MIC), strain A; details: 10^6 cells/ml, Japan Society of Chemotherapy method
Description: (§1) The antibacterial activity was determined by measuring minimum growth inhibitory concentrations (MICs) in accordance with the method designated by the Japan Society of Chemotherapy. A, B, C and D in the table indicate the following meanings: A: Staphylococcus aureus SMITH The test microorganisms were used at 10^6 cells/ml.

[2] = tested on: Staphylococcus aureus SR 14 (R); assay: Antibacterial spectrum, minimum growth inhibitory concentration (MIC), strain B; details: 10^6 cells/ml, Japan Society of Chemotherapy method
Description: The antibacterial activity was determined by measuring minimum growth inhibitory concentrations (MICs) in accordance with the method designated by the Japan Society of Chemotherapy.
A, B, C and D in the table indicate the following meanings:
B: Staphylococcus aureus SR 14 (R)
The test microorganisms were used at 10^6 cells/ml.

[3] = tested on: Escherichia coli EC-14; assay: Antibacterial spectrum, minimum growth inhibitory concentration (MIC), strain C; details: EC14, 10^6 cells/ml, Japan Society of Chemotherapy method
Description: as §1, with “C: Escherichia coli EC-14” for “A: Staphylococcus aureus SMITH”

[4] = tested on: Escherichia coli SR377 (R); assay: Antibacterial spectrum, minimum growth inhibitory concentration (MIC), strain D; details: 10^6 cells/ml, Japan Society of Chemotherapy method
Description: as §1, with “D: Escherichia coli SR377 (R).” for “A: Staphylococcus aureus SMITH”

Structure (SMILES)	MIC [1] [µg/mL]	MIC [2] [µg/mL]	MIC [3] [µg/mL]	MIC [4] [µg/mL]
CN[C@@H]1CN(c2c(F)c(N)c3c(=O)c(C(=O)O)cn(C4CC4)c3c2F)C[C@@H]1OC.Cl [Compound I-2, (-)-1-Cyclopropyl-5-amino-6,8-difluoro-1,4-dihydro-7-(cis-3-methylamino-4-methoxy-1-pyrrolidinyl)-4-oxo-3-quinolinecarboxylic acid hydrochloride]	0.05	0.05	0.05	0.1
CO[C@@H]1CN(c2c(F)c(N)c3c(=O)c(C(=O)O)cn(C4CC4)c3c2F)C[C@@H]1N [Compound I-3, (+)-1-Cyclopropyl-5-amino-6,8-difluoro-1,4-dihydro-7-(cis-3-amino-4-methoxy-1-pyrrolidinyl)-4-oxo-3-quinolinecarboxylic acid hydrochloride]	0.05	0.05	0.02	0.1
CO[C@H]1CN(c2c(F)c(N)c3c(=O)c(C(=O)O)cn(C4CC4)c3c2F)C[C@H]1N (relative stereo) [Compound I-5, 1-Cyclopropyl-5-amino-6,8-difluoro-1,4-dihydro-7-(cis-3-amino-4-methoxy-1-pyrrolidinyl)-4-oxo-3-quinolinecarboxylic acid]	0.02 (≈ 0.0507 µM)	0.05 (≈ 0.127 µM)	0.02 (≈ 0.0507 µM)	0.05 (≈ 0.127 µM)
CC1COc2c(N3CCN(C)CC3)c(F)cc3c(=O)c(C(=O)O)cn1c23 (stereo not shown) [OFLX, ofloxacin, reference compound]	0.2 (≈ 0.553 µM)	0.4 (≈ 1.11 µM)	0.1 (≈ 0.277 µM)	0.1 (≈ 0.277 µM)
CN[C@@H]1CN(c2c(F)c(N)c3c(=O)c(C(=O)O)cn(C4CC4)c3c2F)C[C@@H]1OC (relative stereo) [Compound I-11, 1-Cyclopropyl-5-amino-6,8-difluoro-1,4-dihydro-7-(cis-3-methylamino-4-methoxy-1-pyrrolidinyl)-4-oxo-3-quinolinecarboxylic acid]	0.05 (≈ 0.122 µM)	0.05 (≈ 0.122 µM)	0.05 (≈ 0.122 µM)	0.1 (≈ 0.245 µM)
CO[C@H]1CN(c2c(F)c(N)c3c(=O)c(C(=O)O)cn(C4CC4)c3c2F)C[C@H]1N [Compound I-4, (-)-1-Cyclopropyl-5-amino-6,8-difluoro-1,4-dihydro-7-(cis-3-amino-4-methoxy-1-pyrrolidinyl)-4-oxo-3-quinolinecarbxylic acid hydrochloride]	0.02	0.02	0.02	0.05
CN[C@H]1CN(c2c(F)c(N)c3c(=O)c(C(=O)O)cn(C4CC4)c3c2F)C[C@H]1OC [Compound I-1, (+)-1-Cyclopropyl-5-amino-6,8-difluoro-1,4-dihydro-7-(cis-3-methylamino-4-methoxy-1-pyrrolidinyl)-4-oxo-3-quinolinecarboxylic acid hydrochloride]	0.1	0.1	0.1	0.2
